According to patent US8101783B1, “Titanium-maltol compound and method of synthesizing the same” (priority 2007, dated 2012):

How the values were obtained:
[1] = physiological pH; cited from earlier work
[2] = Stability of the crystals removed from the mother liquor; type: physicochemical; conditions: when removed from the mother liquor
[3] = Solubility of the Ti(IV)-maltol complexes in water and in CH2Cl2; type: physicochemical
Protocol: Alternatively, more than two (and preferably three) equivalents of maltol could be used to provide an excess and ensure completion of the reaction.
However, at pH of 8.4 the complex becomes soluble in water but promotes tetramerization of the [Ti(maltolato)2(OH)2] species. In fact, this can be monitored by NMR spectroscopy. A pure sample of cis-[Ti(maltolato)2(OH)2] was dissolved in D2O at pH of 8.4. […] These two species belong most likely to cis-[Ti(maltolato)2(OH)2] and [Ti4(maltolato)8(μ-O)4]. After 24 hours the tetrameric species continues increasing while the monomeric species decreases. Upon standing for two weeks, at pH of 8.4, this solution yields orange crystals suitable for X-ray diffraction. Evidently, Ti(maltolato)2(OH)2 further reacts to form a tetranuclear titanium complex, which crystallizes as a hydrate, [Ti4(maltolato)8(μ-O)4].18H2O, Single crystal X-ray structure determination was pursued on this high pH species, which solid state structure is illustrated in FIG. 2. The crystal data and structure refinement details as well as the bonding parameters are summarized below in Table 1 and Table 2, respectively.
Electrochemical behavior of Ti(maltolato)2(OH)2 was investigated using cyclic voltammetry (cv). Ti(maltolato)2(OH)2 in CH2Cl2/[NBu4] […] If this potential is compared with previously reported Ti(IV)-maltol and Ti(IV)-guaiacol complexes, it resembles to reduction potentials of monomeric species such as Ti(maltolato)2(OEt)2 (−1.0 V) and Ti(maltolato)2(Cl)2 (−1.55 V) and not to the tetrameric species [Ti4(guaiacolato)8(μ-O)4] (−1.94 V).

CC(=O)[CH-]C(=O)c1ccccc1.CC(=O)[CH-]C(=O)c1ccccc1.CC[O-].CC[O-].[Ti+4] [budotitane]
hydrolytic stability [1]: low hydrolytic stability

Cc1occc(=O)c1[O-].Cc1occc(=O)c1[O-].Cc1occc(=O)c1[O-].Cc1occc(=O)c1[O-].Cc1occc(=O)c1[O-].Cc1occc(=O)c1[O-].Cc1occc(=O)c1[O-].Cc1occc(=O)c1[O-].O.O.O.O.O.O.O.O.O.O.O.O.O.O.O.O.O.O.[O-2].[O-2].[O-2].[O-2].[Ti+4].[Ti+4].[Ti+4].[Ti+4] [[Ti4(maltolato)8(μ-O)4].18H2O]
stability of crystals [2]: unstable and undergoes dehydration

dihydroxobis(maltolato)titanium(IV) [Ti(maltolato)2(OH)2]
solubility in water ([3]; low pH (5.4)): slightly water soluble | solubility in water ([3]; pH of 8.4, promotes tetramerization): soluble

titanocene dichloride
hydrolytic stability [1]: low hydrolytic stability

Cc1occc(=O)c1[O-].Cc1occc(=O)c1[O-].Cc1occc(=O)c1[O-].Cc1occc(=O)c1[O-].Cc1occc(=O)c1[O-].Cc1occc(=O)c1[O-].Cc1occc(=O)c1[O-].Cc1occc(=O)c1[O-].[O-2].[O-2].[O-2].[O-2].[Ti+4].[Ti+4].[Ti+4].[Ti+4] [[Ti4(maltolato)8(μ-O)4]]
solubility in CH2Cl2 ([3]; CH2Cl2, cyclic voltammetry attempt): lack of solubility
